The target of the assay is T1, recombinant guanylate cyclase reporter cell line (Rattus norvegicus, UniProt P20595).
T1 construct: expressed in transfected cells
T1 sequence (P20595 1-619): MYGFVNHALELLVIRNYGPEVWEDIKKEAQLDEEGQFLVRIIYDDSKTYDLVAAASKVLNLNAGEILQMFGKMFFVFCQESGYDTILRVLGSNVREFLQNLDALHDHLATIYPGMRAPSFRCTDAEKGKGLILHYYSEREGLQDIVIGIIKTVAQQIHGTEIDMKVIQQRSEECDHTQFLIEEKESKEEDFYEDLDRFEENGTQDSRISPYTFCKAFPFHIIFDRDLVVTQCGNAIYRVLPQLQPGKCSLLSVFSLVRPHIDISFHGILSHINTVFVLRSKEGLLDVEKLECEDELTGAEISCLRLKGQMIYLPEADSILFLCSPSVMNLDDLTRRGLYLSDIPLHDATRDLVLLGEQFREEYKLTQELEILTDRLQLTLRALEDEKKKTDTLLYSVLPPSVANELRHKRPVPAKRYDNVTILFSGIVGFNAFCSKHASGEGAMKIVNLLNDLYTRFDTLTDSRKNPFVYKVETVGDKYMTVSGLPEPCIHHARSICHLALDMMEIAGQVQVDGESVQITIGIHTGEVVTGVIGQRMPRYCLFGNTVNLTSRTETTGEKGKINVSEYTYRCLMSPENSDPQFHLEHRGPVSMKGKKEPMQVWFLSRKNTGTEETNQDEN
T1 sequence (P19686 1-690 partner): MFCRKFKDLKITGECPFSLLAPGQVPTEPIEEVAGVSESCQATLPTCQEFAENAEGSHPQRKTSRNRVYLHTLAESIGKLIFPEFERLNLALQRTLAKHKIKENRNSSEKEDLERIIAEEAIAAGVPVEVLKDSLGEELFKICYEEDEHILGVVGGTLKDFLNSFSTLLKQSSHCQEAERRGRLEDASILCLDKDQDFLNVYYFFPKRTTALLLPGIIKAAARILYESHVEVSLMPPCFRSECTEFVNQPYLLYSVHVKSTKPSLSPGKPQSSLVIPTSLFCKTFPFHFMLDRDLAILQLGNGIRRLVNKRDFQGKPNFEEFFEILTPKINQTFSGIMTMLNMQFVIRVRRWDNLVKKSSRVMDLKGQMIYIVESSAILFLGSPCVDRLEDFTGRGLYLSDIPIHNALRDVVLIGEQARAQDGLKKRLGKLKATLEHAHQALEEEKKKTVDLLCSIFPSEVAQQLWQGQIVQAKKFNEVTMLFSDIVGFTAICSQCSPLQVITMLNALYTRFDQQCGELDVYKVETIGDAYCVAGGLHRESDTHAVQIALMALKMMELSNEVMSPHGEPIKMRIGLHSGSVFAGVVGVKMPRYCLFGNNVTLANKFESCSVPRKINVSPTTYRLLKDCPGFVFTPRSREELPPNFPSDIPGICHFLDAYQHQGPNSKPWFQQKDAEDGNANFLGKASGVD
Nature of the assay: Effect on a recombinant guanylate cyclase reporter cell line. The note with it: in some cases mean values from individual determinations; for MEC: MEC = minimum effective concentration; for EC50: half maximal effective concentration. It is filed as cell-based. As to the method: The cellular activity of the compounds according to the invention was determined using a recombinant guanylate cyclase reporter cell line, as described in F. Wunder et al., Anal. Biochem. 339, 104-112 (2005).

Where a name gives a salt, the structure may show the parent alone.

As to `O=C(O)c1cnn(C2CCCN(c3cc(Cl)ccc3-c3ccc(N4CCN(CC5CC5(F)F)CC4)cc3)C2)c1C(F)(F)F` (mixture of isomers) [Example 31, 1-[1-[5-Chloro-2-[4-[4-[[2,2-difluorocyclopropyl]methyl]piperazin-1-yl]phenyl]phenyl]-3-piperidyl]-5-(trifluoromethyl)pyrazole-4-carboxylic acid hydrochloride], the MEC came to 1.0 nM and the EC50 worked out at 3.8 nM.

`CN1CCN(c2ccc(-c3ccc(Cl)cc3N3CCCC(n4ncc(C(=O)O)c4C(F)(F)F)C3)cc2)CC1` (single isomer, unassigned) [Example 1, 1-[1-[5-Chloro-2-[4-(4-methylpiperazin-1-yl)phenyl]phenyl]-3-piperidyl]-5-(trifluoromethyl)pyrazole-4-carboxylic acid]: the MEC is recorded as 10.0 nM and the EC50 worked out at 47.5 nM.

Regarding `CN1CCN(c2ccc(-c3ccc(Cl)cc3N3CCCC(n4ncc(C(=O)O)c4C(F)(F)F)C3)cc2)CC1` (single isomer, unassigned) [Example 2, 1-{1-[4-Chloro-4′-(4-methylpiperazin-1-yl)[1,1′-biphenyl]-2-yl]piperidin-3-yl}-5-(trifluoromethyl)-1H-pyrazole-4-carboxylic acid hydrochloride], the EC50 was 28.8 nM. Besides, the MEC (hydrochloride) is 5.5 nM.

Take `CCN1CCN(c2ccc(-c3ccc(Cl)cc3N3CCCC(n4ncc(C(=O)O)c4C(F)(F)F)C3)cc2)CC1` (single isomer, unassigned) [Example 3, 1-{1-[4-Chloro-4′-(4-ethylpiperazin-1-yl)[1,1′-biphenyl]-2-yl]piperidin-3-yl}-5-(trifluoromethyl)-1H-pyrazole-4-carboxylic acid hydrochloride]: the MEC was found to be 10.0 nM and the EC50 worked out at 66.5 nM.

Turning to `CCCN1CCN(c2ccc(-c3ccc(Cl)cc3N3CCCC(n4ncc(C(=O)O)c4C(F)(F)F)C3)cc2)CC1` (single isomer, unassigned) [Example 4, 1-[1-[5-Chloro-2-[4-(4-propylpiperazin-1-yl)phenyl]phenyl]-3-piperidyl]-5-(trifluoromethyl)pyrazole-4-carboxylic acid hydrochloride], the MEC was 3.0 nM and the EC50 turned out to be 16 nM.

In the case of `N#CCCN1CCN(c2ccc(-c3ccc(Cl)cc3N3CCCC(n4ncc(C(=O)O)c4C(F)(F)F)C3)cc2)CC1` (single isomer, unassigned) [Example 5, 1-[1-[5-Chloro-2-[4-[4-(2-cyanoethyl)piperazin-1-yl]phenyl]phenyl]-3-piperidyl]-5-(trifluoromethyl)pyrazole-4-carboxylic acid], the MEC was found to be 1.0 nM and the EC50 amounted to 4.8 nM.

In the case of `CC(C)N1CCN(c2ccc(-c3ccc(Cl)cc3N3CCCC(n4ncc(C(=O)O)c4C(F)(F)F)C3)cc2)CC1` (single isomer, unassigned) [Example 6, 1-[1-[5-Chloro-2-[4-(4-isopropylpiperazin-1-yl)phenyl]phenyl]-3-piperidyl]-5-(trifluoromethyl)pyrazole-4-carboxylic acid hydrochloride], the MEC stood at 10.0 nM and the EC50 stood at 88 nM.

As to `O=C(O)c1cnn(C2CCCN(c3cc(Cl)ccc3-c3ccc(N4CCN(C[C@@H]5C[C@@H]5F)CC4)cc3)C2)c1C(F)(F)F` (single isomer, unassigned) [Example 8, hydrochloride], the EC50 is 53 nM. Moreover, the MEC (hydrochloride) turned out to be 10.0 nM.

Regarding `O=C(O)c1cnn(C2CCCN(c3cc(Cl)ccc3-c3ccc(N4CCN(CC5(F)CC5)CC4)cc3)C2)c1C(F)(F)F` (single isomer, unassigned) [Example 9, 1-[1-[5-Chloro-2-[4-[4-[(1-fluorocyclopropyl)methyl]piperazin-1-yl]phenyl]phenyl]-3-piperidyl]-5-(trifluoromethyl)pyrazole-4-carboxylic acid hydrochloride], the MEC was determined as 0.3 nM and the EC50 is 1.1 nM.

Consider `CC(C)(F)CN1CCN(c2ccc(-c3ccc(Cl)cc3N3CCCC(n4ncc(C(=O)O)c4C(F)(F)F)C3)cc2)CC1.Cl` (single isomer, unassigned) [Example 10, 1-[1-[5-Chloro-2-[4-[4-(2-fluoro-2-methyl-propyl)piperazin-1-yl]phenyl]phenyl]-3-piperidyl]-5-(trifluoromethyl)pyrazole-4-carboxylic acid hydrochloride], for which the MEC was 3.0 nM and the EC50 was determined as 24.5 nM.

For `CC(F)(F)CN1CCN(c2ccc(-c3ccc(Cl)cc3N3CCCC(n4ncc(C(=O)O)c4C(F)(F)F)C3)cc2)CC1` (single isomer, unassigned) [Example 11, 1-[1-[5-Chloro-2-[4-[4-(2,2-difluoropropyl)piperazin-1-yl]phenyl]phenyl]-3-piperidyl]-5-(trifluoromethyl)pyrazole-4-carboxylic acid hydrochloride], the MEC is 0.3 nM and the EC50 amounted to 1.4 nM.

With `O=C(O)c1cnn(C2CCCN(c3cc(Cl)ccc3-c3ccc(N4CCN(CC(F)F)CC4)cc3)C2)c1C(F)(F)F` (single isomer, unassigned) [Example 12, 1-[1-[5-Chloro-2-[4-[4-(2,2-difluoroethyl)piperazin-1-yl]phenyl]phenyl]-3-piperidyl]-5-(trifluoromethyl)pyrazole-4-carboxylic acid hydrochloride], the EC50 came out at 4.6 nM. The MEC (hydrochloride) came to 1.0 nM.

Regarding `O=C(O)c1cnn(C2CCCN(c3cc(Cl)ccc3-c3ccc(N4CCN(CC(F)F)CC4)cc3)C2)c1C(F)(F)F` (single isomer, unassigned) [Example 13, 1-[1-[5-Chloro-2-[4-[4-(2,2-difluoroethyl)piperazin-1-yl]phenyl]phenyl]-3-piperidyl]-5-(trifluoromethyl)pyrazole-4-carboxylic acid], the MEC is 3.0 nM and the EC50 turned out to be 54 nM.

For `O=C(O)c1cnn(C2CCCN(c3cc(Cl)ccc3-c3ccc(N4CCN(CCC(F)F)CC4)cc3)C2)c1C(F)(F)F` (single isomer, unassigned) [Example 14, 1-[1-[5-Chloro-2-[4-[4-(3,3-difluoropropyl)piperazin-1-yl]phenyl]phenyl]-3-piperidyl]-5-(trifluoromethyl)pyrazole-4-carboxylic acid hydrochloride], the MEC is given as 0.3 nM and the EC50 is 3.1 nM.

On to `O=C(O)c1cnn(C2CCCN(c3cc(Cl)ccc3-c3ccc(N4CCN(CC(F)(F)F)CC4)cc3)C2)c1C(F)(F)F` (single isomer, unassigned) [Example 15, 1-[1-[5-Chloro-2-[4-[4-(2,2,2-trifluoroethyl)piperazin-1-yl]phenyl]phenyl]-3-piperidyl]-5-(trifluoromethyl)pyrazole-4-carboxylic acid], for which the MEC is on record as 0.6 nM.

In the case of `O=C(O)c1cnn(C2CCCN(c3cc(Cl)ccc3-c3ccc(N4CCN(CC(F)(F)F)CC4)cc3)C2)c1C(F)(F)F` (single isomer, unassigned) [Example 16, 1-[1-[5-Chloro-2-[4-[4-(2,2,2-trifluoroethyl)piperazin-1-yl]phenyl]phenyl]-3-piperidyl]-5-(trifluoromethyl)pyrazole-4-carboxylic acid], the MEC was 3.0 nM and the EC50 is 14.4 nM.

Source of the values: patent publication US20240109864A1, “SUBSTITUTED PYRAZOLYL PIPERIDINE CARBOXYLIC ACIDS” (BAYER AKTIENGESELLSCHAFT, priority 2020, published 2024).
